Active and inactive are the calls of the source. The calls are words filed in the database; no cut-off is given here. Where a SMILES comes first, the peptide text is derived from it. Bridges are numbered along the chain shown (N, C = ends).
Tests used:
Toll-like receptor 4 [1] = molecular target: T1, Toll-like receptor 4 (Homo sapiens, UniProt O00206); experiment: Antagonist activity at TLR4 in human THP1 cells assessed as reduction in LPS-induced IRF3 phosphorylation at 50 uM after 120 to 240 mins by Western blot analysis; assay type: cell-based
[2] = molecular target: T2, Toll-like receptor 4 (Mus musculus) (UniProt Q9QUK6); experiment: Antagonist activity at TLR4 in mouse RAW264.7 cells assessed as reduction in LPS-induced cytosolic NO level at 50 uM by DAF-FM staining based FACS analysis; assay type: cell-based
T2 sequence (whole entry): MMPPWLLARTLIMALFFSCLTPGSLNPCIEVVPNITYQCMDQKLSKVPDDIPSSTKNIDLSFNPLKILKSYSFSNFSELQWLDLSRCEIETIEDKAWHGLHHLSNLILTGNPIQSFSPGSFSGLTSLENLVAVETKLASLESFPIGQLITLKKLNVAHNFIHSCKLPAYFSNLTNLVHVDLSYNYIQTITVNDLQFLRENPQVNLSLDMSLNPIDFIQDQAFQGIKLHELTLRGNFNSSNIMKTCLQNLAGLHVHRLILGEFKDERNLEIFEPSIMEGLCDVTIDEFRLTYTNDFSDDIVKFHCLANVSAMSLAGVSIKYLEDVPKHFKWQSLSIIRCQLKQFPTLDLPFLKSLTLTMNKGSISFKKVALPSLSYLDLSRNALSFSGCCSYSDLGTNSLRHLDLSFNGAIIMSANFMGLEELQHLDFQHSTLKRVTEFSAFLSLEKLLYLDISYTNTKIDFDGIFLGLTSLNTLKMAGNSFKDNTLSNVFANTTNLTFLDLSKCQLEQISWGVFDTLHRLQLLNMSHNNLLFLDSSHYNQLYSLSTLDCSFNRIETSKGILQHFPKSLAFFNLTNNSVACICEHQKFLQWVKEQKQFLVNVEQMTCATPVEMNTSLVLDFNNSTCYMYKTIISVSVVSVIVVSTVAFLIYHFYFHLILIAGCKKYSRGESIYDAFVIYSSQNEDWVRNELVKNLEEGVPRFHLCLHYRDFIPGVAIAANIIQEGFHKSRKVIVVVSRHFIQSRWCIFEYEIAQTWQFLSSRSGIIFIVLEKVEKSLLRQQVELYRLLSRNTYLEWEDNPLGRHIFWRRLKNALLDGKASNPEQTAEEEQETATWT

[3] = molecular target: T3, Toll-like receptor 9 (Homo sapiens) (UniProt Q9NR96); experiment: Antagonist activity at TLR9 in human THP1 cells assessed as reduction in CpG ODN-induced IL6 secretion at 50 uM after 24 hrs by ELISA; assay type: cell-based
T3 sequence (whole entry): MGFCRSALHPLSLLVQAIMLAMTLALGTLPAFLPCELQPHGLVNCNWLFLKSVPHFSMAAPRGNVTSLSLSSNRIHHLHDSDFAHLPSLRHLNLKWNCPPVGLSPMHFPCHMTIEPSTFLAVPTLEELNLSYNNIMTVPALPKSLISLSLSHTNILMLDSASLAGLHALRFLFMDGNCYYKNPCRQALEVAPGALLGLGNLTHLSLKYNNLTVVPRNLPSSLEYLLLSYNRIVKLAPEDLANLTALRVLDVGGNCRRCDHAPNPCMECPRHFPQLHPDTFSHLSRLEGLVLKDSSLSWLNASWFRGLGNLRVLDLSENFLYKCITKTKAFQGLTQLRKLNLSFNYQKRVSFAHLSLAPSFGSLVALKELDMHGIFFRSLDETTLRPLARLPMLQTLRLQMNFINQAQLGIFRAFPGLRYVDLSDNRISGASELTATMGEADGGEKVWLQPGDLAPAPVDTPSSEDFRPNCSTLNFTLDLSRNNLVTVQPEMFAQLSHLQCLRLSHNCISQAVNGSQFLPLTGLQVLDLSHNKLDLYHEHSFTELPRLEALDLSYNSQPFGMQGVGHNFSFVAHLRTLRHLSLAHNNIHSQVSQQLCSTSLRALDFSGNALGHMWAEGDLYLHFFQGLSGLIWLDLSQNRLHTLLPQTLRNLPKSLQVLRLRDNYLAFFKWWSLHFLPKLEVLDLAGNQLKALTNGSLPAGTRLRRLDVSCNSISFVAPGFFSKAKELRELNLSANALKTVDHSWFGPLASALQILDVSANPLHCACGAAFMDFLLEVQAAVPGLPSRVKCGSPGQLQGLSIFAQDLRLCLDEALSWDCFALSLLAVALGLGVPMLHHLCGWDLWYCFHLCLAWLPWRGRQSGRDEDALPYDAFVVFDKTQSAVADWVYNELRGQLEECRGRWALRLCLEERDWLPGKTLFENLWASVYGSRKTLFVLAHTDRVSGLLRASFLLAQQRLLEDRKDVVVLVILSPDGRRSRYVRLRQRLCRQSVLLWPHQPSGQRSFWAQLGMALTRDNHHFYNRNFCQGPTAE

Toll-like receptor 4 [4] = molecular target: T1, Toll-like receptor 4; experiment: Antagonist activity at TLR4 in human THP1 cells assessed as reduction in LPS-induced ATF3 activation at 50 uM after 120 to 240 mins by Western blot analysis; assay type: cell-based
Toll-like receptor 4 [5] = molecular target: T1, Toll-like receptor 4; experiment: Antagonist activity at TLR4 in human THP1 cells assessed as reduction in LPS-induced IL6 secretion at 50 uM after 24 hrs by ELISA; assay type: cell-based
Rattus norvegicus = experiment: Antiarthritic activity in Lewis rat model of complete Freund's adjuvant-induced arthritis assessed as regain of normal feet physiology at 1 nmol/g administered intra-articularly into knee joint after 5 to 6 weeks by visual analysis; assay type: functional, organism-based
Toll-like receptor 4 [6] = molecular target: T1, Toll-like receptor 4; experiment: Antagonist activity at TLR4 in human PBMC cells assessed as reduction in LPS-induced ERK phosphorylation at 80 uM after 15 to 30 mins by Western blot analysis; assay type: cell-based
Toll-like receptor 4 [7] = molecular target: T1, Toll-like receptor 4; experiment: Antagonist activity at TLR4 in human PBMC cells assessed as reduction in LPS-induced IkappaBalpha degradation at 80 uM after 15 to 30 mins by Western blot analysis; assay type: cell-based
[8] = molecular target: T2, Toll-like receptor 4 (Mus musculus); experiment: Antagonist activity at TLR4 in mouse RAW264.7 cells assessed as reduction in LPS-induced IkappaBalpha cytosolic degradation at 80 uM after 15 to 30 mins by Western blot analysis; assay type: cell-based
[9] = molecular target: Toll-like receptor 1/2 (Homo sapiens) (UniProt O60603+Q15399); experiment: Antagonist activity at TLR2/1 in human PBMC cells assessed as reduction in PAM3CSK4-induced IL6 secretion at 20 to 80 uM after 24 hrs by ELISA; assay type: cell-based
[10] = molecular target: T2, Toll-like receptor 4 (Mus musculus); experiment: Binding affinity to TLR4 in mouse RAW264.7 cells assessed as colocalization of TLR4 in plasma membrane at 40 uM preincubated for 1 hr followed by LPS challenge and measured after 30 mins using FITC-labelled compound by Alexafluor-488/Hoechst 33258 staining based immunofluorescence confocal microscopic method; assay type: cell-based
[11] = molecular target: Toll-like receptor 2 (Homo sapiens) (UniProt O60603); experiment: Non-specific binding affinity to human TLR2 up to 200 uM by surface plasmon resonance analysis
[12] = molecular target: T2, Toll-like receptor 4 (Mus musculus); experiment: Antagonist activity at TLR4 in mouse RAW264.7 cells assessed as reduction in LPS-induced NFkappaB p65 phosphorylation at 80 uM after 15 to 30 mins by Western blot analysis; assay type: cell-based
Mus musculus = experiment: Antiinflammatory activity in C57BL/6J mouse assessed as reduction in LPS-induced IL6 secretion at 70 nmol/g, ip pretreated for 1 hr followed by LPS challenge and measured after 2 hrs by ELISA; assay type: functional, organism-based

T1 sequence (O00206 whole entry): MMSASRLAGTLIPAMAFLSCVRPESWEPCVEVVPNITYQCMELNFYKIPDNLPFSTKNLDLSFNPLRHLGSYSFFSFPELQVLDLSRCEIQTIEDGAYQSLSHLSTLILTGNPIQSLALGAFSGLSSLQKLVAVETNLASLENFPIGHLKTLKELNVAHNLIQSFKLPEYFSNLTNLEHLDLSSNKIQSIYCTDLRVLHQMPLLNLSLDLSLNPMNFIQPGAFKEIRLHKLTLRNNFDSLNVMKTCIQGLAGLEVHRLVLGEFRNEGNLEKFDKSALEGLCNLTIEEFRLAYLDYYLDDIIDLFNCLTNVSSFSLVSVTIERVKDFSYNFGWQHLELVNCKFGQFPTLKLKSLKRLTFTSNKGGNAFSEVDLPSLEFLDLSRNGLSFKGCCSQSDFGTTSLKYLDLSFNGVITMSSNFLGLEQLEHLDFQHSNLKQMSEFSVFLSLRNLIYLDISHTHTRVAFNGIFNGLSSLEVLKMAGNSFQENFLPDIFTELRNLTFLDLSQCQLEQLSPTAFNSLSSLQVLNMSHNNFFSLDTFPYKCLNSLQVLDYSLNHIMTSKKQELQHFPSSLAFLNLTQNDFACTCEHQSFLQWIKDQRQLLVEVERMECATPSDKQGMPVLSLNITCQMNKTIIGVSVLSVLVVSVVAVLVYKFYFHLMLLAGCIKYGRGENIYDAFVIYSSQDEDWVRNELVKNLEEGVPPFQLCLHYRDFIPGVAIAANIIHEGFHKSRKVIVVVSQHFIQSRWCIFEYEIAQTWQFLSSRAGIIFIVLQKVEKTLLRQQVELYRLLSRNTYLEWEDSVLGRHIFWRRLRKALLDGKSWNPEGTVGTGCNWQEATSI
Sequence of Toll-like receptor 2 (Homo sapiens) (O60603 whole entry): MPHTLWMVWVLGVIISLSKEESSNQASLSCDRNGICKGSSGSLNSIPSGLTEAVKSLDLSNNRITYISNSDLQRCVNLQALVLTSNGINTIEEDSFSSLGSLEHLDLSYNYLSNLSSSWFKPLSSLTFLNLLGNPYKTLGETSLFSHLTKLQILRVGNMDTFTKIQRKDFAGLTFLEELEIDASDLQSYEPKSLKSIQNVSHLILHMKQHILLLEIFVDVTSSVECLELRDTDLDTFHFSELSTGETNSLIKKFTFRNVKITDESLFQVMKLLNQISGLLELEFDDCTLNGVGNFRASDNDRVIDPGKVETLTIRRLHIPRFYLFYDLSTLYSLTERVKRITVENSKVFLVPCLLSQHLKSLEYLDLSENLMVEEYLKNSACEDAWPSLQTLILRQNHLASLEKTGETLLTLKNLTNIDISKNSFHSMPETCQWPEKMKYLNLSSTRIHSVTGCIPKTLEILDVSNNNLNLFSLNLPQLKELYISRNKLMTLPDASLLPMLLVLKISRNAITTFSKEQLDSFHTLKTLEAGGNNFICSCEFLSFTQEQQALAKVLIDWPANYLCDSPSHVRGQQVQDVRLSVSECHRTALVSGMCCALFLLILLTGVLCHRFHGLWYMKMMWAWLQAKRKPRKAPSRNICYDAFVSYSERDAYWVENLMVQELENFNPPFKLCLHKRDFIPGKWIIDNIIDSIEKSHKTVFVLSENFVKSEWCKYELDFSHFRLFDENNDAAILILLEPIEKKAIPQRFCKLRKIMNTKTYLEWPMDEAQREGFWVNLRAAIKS

Compound | Activity (Toll-like receptor 4 [1]) | Activity [2] | Activity [3] | Activity (Toll-like receptor 4 [4]) | Activity (Toll-like receptor 4 [5]) | Activity (Rattus norvegicus) | Activity (Toll-like receptor 4 [6]) | Activity (Toll-like receptor 4 [7]) | Activity [8] | Activity [9] | Activity [10] | Activity [11] | Activity [12] | Activity (Mus musculus)
CC[C@H](C)[C@@H]1NC(=O)[C@H](Cc2c[nH]c3ccccc23)NC(=O)[C@H](Cc2c[nH]c3ccccc23)NC(=O)[C@@H](NC(=O)[C@H](CO)NC(=O)[C@H](Cc2ccccc2)NC(=O)[C@@H](NC(=O)CNC(=O)[C@@H](N)CC(C)C)C(C)C)CC(=O)NCCCC[C@@H](C(=O)N[C@@H](CC(C)C)C(=O)N[C@H](C(=O)O)C(C)C)NC1=O (H-LGVFSDWWIKLV-OH; lactam 6-10) | Active | Active | Active | Active | Active | Active | – | – | – | – | – | – | – | –
H-LGVFSSWWIKLV-OH | – | – | – | – | – | – | Active | Active | Active | inactive | Active | Active | Active | Active

— ChEMBL document CHEMBL4359843, “Linear and Rationally Designed Stapled Peptides Abrogate TLR4 Pathway and Relieve Inflammatory Symptoms in Rheumatoid Arthritis Rat Model” (J Med Chem, 2019)
